Source: patent US20060251638A1, “Cytoprotection through the use of hif hydroxylase inhibitors” (priority 2003, published 2006)

How the values were obtained:
[1] = system: Human umbilical vein endothelial cells (HUVEC); experiment: TNF-α induced apoptosis in HUVEC (Annexin V immunostaining, morphology); assay type: cell-based
Description: Human umbilical vein endothelial cells (HUVEC) were plated in DMEM containing 0.5% fetal bovine serum that was supplemented with 1 ng/ml of vascular endothelial growth factor. After overnight culture, the cells were washed with PBS and incubated for an additional 24 hours in DMEM containing 0.5% fetal bovine serum and either vehicle control (DMSO) or 25 μM of compound G. The cell cultures were subsequently washed and re-cultured with DMEM containing 0.5% fetal bovine serum containing 20 ng/ml TNF-α for an additional 4 or 8 hours. The cells were then harvested and immunostained with either FITC-conjugated isotype control or FITC-conjugated Annexin V for identification and determination of cells undergoing apoptosis. (Koopman et al. (1994) Blood 84:1415-1420.) Annexin V preferentially binds negatively charged phospholipids, like phosphatidylserine, which are associated with plasma membrane changes in apoptotic cells. Annexin V binding allows for the identification and quantitation of cells at early stages of apoptosis, when apoptosis occurs in the absence of DNA fragmentation, and the discrimination between cell death associated with apoptosis or with necrosis.
In replicate HUVEC cultures treated as described above, light micrographs were taken of cells treated with vehicle control (DMSO) and compound G following stimulation with 20 ng/ml TNF-α for 4 and 8 hours (FIG. 6). […]

[2] = system: HO-1 protein; experiment: HO-1 protein levels in H9c2 cardiomyocytes by ELISA; assay type: cell-based, rat; conditions: H9c2, 100 μM compound; control 2.86
Description: In another series of experiments, H9c2 rat cardiomyocytes were treated with either vehicle control or with various concentrations (1 μM, 3 μM, 10 μM, 30 μM, and 100 μM) of compound C or compound G. Cell lysates were harvested and HO-1 protein levels determined by ELISA according to the manufacturer's instructions (cat # EKS-810; Stressgen, Victoria, BC, Canada). Data shown below in Table 4 represents values obtain with 100 μM compound.

[3] = system: gene encoding adrenomedullin; experiment: Adrenomedullin gene expression in peripheral blood mononuclear cells; assay type: cell-based; conditions: human PBMCs, 5 μM, 20 hours
Description: Adrenomedullin gene expression following compound treatment was also examined in peripheral blood mononuclear cells (PBMCs). Whole human blood was collected and processed immediately. The blood was diluted with an equal volume of phosphate buffered saline. FICOLL-PAQUE PLUS (Amersham Biosciences) was layered under the blood and the tubes were centrifuged at 350×g for 12 minutes at room temperature. PBMCs formed a visible layer in the middle layer of the tube. PBMCs were carefully removed from the tube, diluted with 3 volumes of phosphate buffered saline, and pelleted by centrifugation for 5 minutes at 300×g at room temperature. PBMCs were cultured in DMEM containing 2.5% fetal bovine serum and treated with either 0.25% DMSO or compound G (5 μM) in 0.25% DMSO for 20 hours. The cells were then pelleted and stored at −20° C. in RLT lysis buffer (Qiagen Inc., Valencia, Calif.) containing 1% beta-mercaptoethanol. Total RNA was isolated using the RNeasy kit (Valencia, Calif.).

[4] = system: H9c2 rat cardiomyocytes; experiment: Intracellular ATP levels in H9c2 cardiomyocytes after oxygen and glucose deprivation (glucose-free DMEM, 2 mM KCN); assay type: cell-based; conditions: H9c2, 20 μM pretreatment 24 hours, glucose-free DMEM and 2 mM KCN for 30 minutes; vehicle control 415
Description: In similar experiments, H9c2 rat cardiomyocytes were pretreated with either vehicle control (0.5% DMSO) or 20 μM of Compound A, Compound B, Compound C, Compound D, Compound E, Compound F, Compound G, or compound H. After 24 hours, cells were washed with serum-free DMEM and subjected to oxygen and glucose deprivation by incubating the cells in glucose-free DMEM and 2 mM KCN for 30 minutes. Intracellular ATP levels were then determined.

[5] = system: H9c2 rat cardiomyocytes; experiment: Intracellular ATP levels and morphology of H9c2 cardiomyocytes under homocysteic acid (HCA) oxidative stress; assay type: cell-based
Description: H9c2 rat cardiomyocytes were incubated with 10 mM homocysteic acid (HCA) in the absence or presence of various concentrations of compound G as indicated for 24 hours. Cell viability was determined by measuring intracellular ATP levels. Quantitation of intracellular ATP levels was performed using the ViaLight Plus™ kit (Cambrex Cat. No. LT17-221) according to the manufacturers instructions.
Phase contrast microscopy of cells treated with HCA correlated with the results shown for intracellular ATP levels in vehicle (DMSO) and compound G treated cells.

[6] = system: caspase-3 and caspase-7; experiment: Caspase-3 and caspase-7 fluorometric assay in SH-SY5Y cells challenged with staurosporin; assay type: cell-based, human
Description: SH-SY5Y cells (human neuroblastoma cells) were plated in 96-well culture plates at 60,000 cells per well. Following overnight incubation, cells were washed one time with DMEM containing 1% fetal bovine serum and cultured in identical media with either vehicle control (DMSO) or 20 μM compound G in a total volume of 200 μl per well. After 24 hours, cells were washed with serum-free media and then incubated with DMEM containing 10% fetal bovine serum with either vehicle control (DMSO) or 20 μM compound G in a total volume of 200 μl per well. Replicate cultures received DMEM with 1% fetal bovine serum and were cultured with either vehicle control (DMSO) or 20 μM compound G, in the absence or presence of 500 nM staurosporin, a kinase inhibitor that induces cellular apoptosis by a caspase-dependent mechanism. (Jacobsen et al. (1996) J Cell Biol. 133:1041-51.). After an additional 24 hour incubation, caspase activity was assayed using a caspase-3 and caspase-7 fluorometric assay according to the manufacturer's instructions (Apo-ONE Homogenous Caspase 3/7 Assay, Promega, Wis.).

## O=C(O)CNC(=O)c1ncc2cc(Oc3ccccc3)ccc2c1O [Compound G, [(4-Hydroxy-7-phenoxy-isoquinoline-3-carbonyl)-amino]-acetic acid]
[1]; 25 μM for 24 hours prior to 20 ng/ml TNF-α for 4 or 8 hours
  annexin V immunostaining (mean fluorescence intensity) versus TNF-α alone: reduced annexin V immunostaining
[1]; 25 μM prior to 20 ng/ml TNF-α for 4 and 8 hours
  HUVEC morphology after TNF-α (light micrographs): viable and normal morphology
[2]
  HO-1 (ng/mg total cell protein): 28.54 ng/mg total cell protein
[3]
  increase in expression of the gene encoding adrenomedullin compared to non-treated control cells: greater than 3.518 fold
[4]
  ATP (relative light units): 2128.3 relative light units
[5]; H9c2, 10 mM HCA, various concentrations, 24 hours, FIG. 2
  intracellular ATP levels in the presence of HCA versus vehicle: dose-dependent increases in intracellular ATP levels
[5]; H9c2, HCA, 30 μM compound, FIG. 3
  cell morphology by phase contrast microscopy under HCA: still confluent, appeared less rounded, and maintained a morphology consistent with viable cardiomyoctes
[5]; H9c2, no HCA, data not shown
  intracellular ATP levels in cells not incubated with HCA: unchanged
[6]; 20 μM pretreatment, 500 nM staurosporin, 1% fetal bovine serum, FIG. 1
  caspase activity after staurosporine challenge: significantly inhibited
[6]; 20 μM, 10% fetal bovine serum, no staurosporin
  caspase activity in cells not undergoing apoptosis, versus DMSO: no differences in caspase activity
